Reference: patent US10206907B2, “Compounds useful for the treatment of degenerative and inflammatory diseases” (GALAPAGOS NV, priority 2008, dated 2019)

Legend:
MMP13 in SW1353 cells = assay: OSM/IL-1β signaling assay (MMP13 levels in SW1353 cells); type: cell-based; conditions: Homo sapiens; SW1353 cells, OSM and IL-1β triggered, MMP13 levels 48 hours after triggering; read-out: MMP13 EC50;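 also: secreted MMP13 captured by antibody, activated with APMA and its activity read by fluorescence, inhibition scaled between vehicle-treated triggered wells (0%) and untriggered wells (100%)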
[1] = Microsomal stability, rat liver microsomes; type: in vitro ADME; conditions: percentage of compound remaining after 60 minutes, 3 μM compound
Procedure: (§1) 40 μL of deionised water was added to a well of a polypropylene Matrix 2D barcode labelled storage tube (Thermo Scientific) and pre-incubated at 37° C.
(§2) A co-factor containing MgCl2, glucose-6-phosphate and NADP+ was prepared in deionised water and placed on ice before use.
(§3) A final working solution containing liver microsomes (Xenotech of a species of interest (human, mouse, rat, dog), previously described G6PDH and co-factors was prepared and this mix was incubated for no longer than 20 minutes at room temperature.
(§4) 30 μL of the pre-heated compound dilution was added to 40 μL of pre-heated water in the Matrix tubes and 30 μL of the microsomal mix was added.
(§5) To measure percentage remaining of compound at time zero MeOH or ACN was added (1:1) to the well before adding the microsomal mix.
(§6) The samples which were not stopped are incubated at 37° C., 300 rpm and after 1 hour of incubation the reaction was stopped with MeOH or ACN (1:1).
(§7) After stopping the reaction the samples were mixed and placed on ice for 30 min to precipitate the proteins.
(§8) The samples were analyzed on LCMS with a flow rate of 1 mL/min. Solvent A was 15 mM ammonia and solvent B was methanol or acetonitrile, depending on the stop solution used. […] The percentage remaining after 1 hour incubation was calculated from time 0 and was calculated as the percentage remaining.
(§9) The data on microsomal stability are expressed as a percentage of the total amount of compound remaining after 60 minutes.

[2] = Microsomal stability, human liver microsomes; type: in vitro ADME; conditions: percentage of compound remaining after 60 minutes, 3 μM compound
Procedure: as §1, §2, §3, §4, §5, §6, §7, §8, §9

[3] = target: Recombinant human JAK1 catalytic domain (Homo sapiens (Human), UniProt P23458); assay: JAK1 inhibition assay; type: biochemical; conditions: semi-quantitative score
Recombinant human JAK1 catalytic domain, sequence (P23458 850-1154): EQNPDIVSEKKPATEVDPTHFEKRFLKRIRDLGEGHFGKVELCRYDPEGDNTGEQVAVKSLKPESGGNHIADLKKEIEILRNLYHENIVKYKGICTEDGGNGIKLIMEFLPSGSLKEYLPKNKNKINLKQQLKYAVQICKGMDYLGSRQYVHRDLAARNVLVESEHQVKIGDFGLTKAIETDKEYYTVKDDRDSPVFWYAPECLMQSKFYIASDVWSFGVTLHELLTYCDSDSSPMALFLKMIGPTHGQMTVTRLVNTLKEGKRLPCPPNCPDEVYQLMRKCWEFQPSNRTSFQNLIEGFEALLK
In short: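 Radiometric assay read by scintillation counting after phosphoric-acid washes. Percent inhibition calculated from cpm relative to vehicle and 10 μM staurosporine control. IC50 derived from compound dose-dilution series.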

[4] = tested on: JAK-STAT signalling in HeLa cells; assay: JAK-STAT signalling assay (OSM-triggered pSTAT1(2)-luciferase reporter in HeLa cells); type: cell-based; conditions: Homo sapiens; HeLa cells, OSM-triggered pSTAT1(2)-luciferase reporter; read-out: STAT signalling EC50
In short: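 HeLa cells transiently transfected with pSTAT1(2)-luciferase reporter plus LacZ internal control, incubated overnight at 37 °C, 10% CO2, then OSM-stimulated with compound. Luciferase read by Steadylite luminescence and normalised to β-galactosidase (ONPG); percent inhibition from controls, EC50 from dose-response.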

[5] = target: Recombinant human JAK2 catalytic domain (Homo sapiens (Human), UniProt O60674); assay: JAK2 inhibition assay; type: biochemical; conditions: semi-quantitative score
Recombinant human JAK2 catalytic domain, sequence (O60674 808-1132): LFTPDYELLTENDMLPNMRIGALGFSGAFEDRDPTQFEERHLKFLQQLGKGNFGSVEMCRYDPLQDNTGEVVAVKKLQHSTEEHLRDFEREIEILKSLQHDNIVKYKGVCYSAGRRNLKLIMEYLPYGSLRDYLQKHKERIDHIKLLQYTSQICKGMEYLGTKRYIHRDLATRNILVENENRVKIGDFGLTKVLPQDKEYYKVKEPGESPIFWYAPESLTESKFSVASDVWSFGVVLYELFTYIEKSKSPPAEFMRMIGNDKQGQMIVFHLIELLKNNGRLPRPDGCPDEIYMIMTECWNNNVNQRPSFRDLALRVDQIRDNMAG
In short: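 Radiometric kinase reactions ran for 90 min at 30 °C and were stopped with phosphoric acid, then washed and counted by scintillation. Percent inhibition was set relative to vehicle and to 10 μM staurosporine background. IC50 was derived from dose-dilution series.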

Row | SMILES | EC50 (MMP13 in SW1353 cells) [nM] | Microsomal Stability Rat (%) [1] | Microsomal Stability Human (%) [2] | IC50 [3] [nM] | EC50 [4] [nM] | IC50 [5] [nM]
1 | O=C(Nc1nc2cccc(-c3ccc(NS(=O)(=O)c4cccnc4)cc3)n2n1)C1CC1 [Compound 64, N-(5-(4-(pyridine-3-sulfonamido)phenyl)-[1,2,4]triazolo[1,5-a]pyridin-2-yl)cyclopropanecarboxamide] | > 1000 | *** (*** 51-75) | **** (**** 76-100) | < 100 | > 1000 | 
2 | O=C(Nc1nc2cccc(-c3ccc(C(=O)N4CCC(F)CC4)cc3)n2n1)C1CC1 [Compound 137, N-(5-(4-(4-fluoropiperidine-1-carbonyl)phenyl)-[1,2,4]triazolo[1,5-a]pyridin-2-yl)cyclopropanecarboxamide] | > 1000 | **** (**** 76-100) | *** (*** 51-75) | < 100 | 501 to 1000 | 
3 | O=C(N[C@@H]1CCN(Cc2ccccc2)C1)c1ccc(-c2cccc3nc(NC(=O)C4CC4)nn23)cc1 [Compound 120, (R)-N-(1-benzylpyrrolidin-3-yl)-4-(2-(cyclopropanecarboxamido)-[1,2,4]triazolo[1,5-a]pyridin-5-yl)benzamide] | > 1000 | * (* 0-25) | * (* 0-25) | < 100 | > 1000 | 
4 | O=C(Nc1nc2cccc(-c3ccc(OCCOc4ccc(F)cc4)cc3)n2n1)C1CC1 [Compound 115, N-(5-(4-(2-(4-fluorophenoxy)ethoxy)phenyl)-[1,2,4]triazolo[1,5-a]pyridin-2-yl)cyclopropanecarboxamide] | > 1000 | ** (** 26-50) | *** (*** 51-75) | < 100 | > 1000 | 101 to 500
5 | CC1CC(C)CN(C(=O)c2ccc(-c3cccc4nc(NC(=O)C5CC5)nn34)cc2)C1 (stereo not shown) [Compound 134] | > 1000 | ** (** 26-50) | *** (*** 51-75) | < 100 | 501 to 1000 | 
6 | O=C(Nc1nc2cccc(-c3ccc(NS(=O)(=O)CCOc4ccccc4)cc3)n2n1)C1CC1 [Compound 122, N-(5-(4-(2-phenoxyethylsulfonamido)phenyl)-[1,2,4]triazolo[1,5-a]pyridin-2-yl)cyclopropanecarboxamide] | > 1000 | * (* 0-25) | * (* 0-25) | < 100 | > 1000 | 
7 | O=C(Nc1nc2cccc(-c3ccc(NCCc4ccccc4)nc3)n2n1)C1CC1 [Compound 123, N-(5-(6-(phenethylamino)pyridin-3-yl)-[1,2,4]triazolo[1,5-a]pyridin-2-yl)cyclopropanecarboxamide] | > 1000 | * (* 0-25) | * (* 0-25) | < 100 | > 1000 | 
8 | O=C(Nc1nc2cccc(-c3ccc(C(=O)N4CCCCC4)cc3F)n2n1)C1CC1 [Compound 89, N-(5-(2-fluoro-4-(piperidine-1-carbonyl)phenyl)-[1,2,4]triazolo[1,5-a]pyridin-2-yl)cyclopropanecarboxamide] | > 1000 | * (* 0-25) | *** (*** 51-75) | < 100 | > 1000 | 

The next lines start with the values.

Row | EC50 (MMP13 in SW1353 cells) [nM] | Microsomal Stability Rat (%) [1] | Microsomal Stability Human (%) [2] | IC50 [3] [nM] | EC50 [4] [nM] | IC50 [5] [nM] | SMILES
9 | > 1000 | * (* 0-25) | * (* 0-25) | < 100 | > 1000 |  | O=C(Nc1nc2cccc(-c3ccc(NCc4cccnc4)cc3)n2n1)C1CC1 [Compound 182, N-(5-(4-(pyridin-3-ylmethylamino)phenyl)-[1,2,4]triazolo[1,5-a]pyridin-2-yl)cyclopropanecarboxamide]
10 | > 1000 | * (* 0-25) | * (* 0-25) | < 100 | > 1000 |  | O=C(NCCc1cccnc1)c1ccc(-c2cccc3nc(NC(=O)C4CC4)nn23)cc1 [Compound 124, 4-(2-(cyclopropanecarboxamido)-[1,2,4]triazolo[1,5-a]pyridin-5-yl)-N-(2-(pyridin-3-yl)ethyl)benzamide]
11 | > 1000 | * (* 0-25) | * (* 0-25) | < 100 | > 1000 |  | COC(=O)c1ccc(COc2ccc(-c3cccc4nc(NC(=O)C5CC5)nn34)cc2)nc1 [Compound 190]
12 | > 1000 | ** (** 26-50) | * (* 0-25) | < 100 | > 1000 |  | Cn1cc(-c2ccc(COc3ccc(-c4cccc5nc(NC(=O)C6CC6)nn45)cc3)cn2)cn1 [Compound 178]
13 | > 1000 | *** (*** 51-75) | ** (** 26-50) | < 100 | 101 to 500 |  | O=C(Nc1nc2cccc(-c3ccc(C(=O)N4CCC(c5cc6ccccc6[nH]5)CC4)cc3)n2n1)C1CC1 [Compound 138]
14 | > 1000 | * (* 0-25) | * (* 0-25) | < 100 | > 1000 |  | CN(C(=O)COc1ccc(-c2cccc3nc(NC(=O)C4CC4)nn23)cc1)c1ccccc1 [Compound 118, N-(5-(4-(2-(methyl(phenyl)amino)-2-oxoethoxy)phenyl)-[1,2,4]triazolo[1,5-a]pyridin-2-yl)cyclopropanecarboxamide]
15 | > 1000 | * (* 0-25) | ** (** 26-50) | < 100 | > 1000 |  | CC1CCCCN1C(=O)c1ccc(-c2cccc3nc(NC(=O)C4CC4)nn23)cc1 (stereo not shown) [Compound 144, N-(5-(4-(2-methylpiperidine-1-carbonyl)phenyl)-[1,2,4]triazolo[1,5-a]pyridin-2-yl)cyclopropanecarboxamide]
16 | 501 to 1000 | **** (**** 76-100) | ** (** 26-50) | < 100 | > 1000 |  | NC(=O)c1ccc(NCc2ccc(-c3cccc4nc(NC(=O)C5CC5)nn34)cc2)cc1 [Compound 227, 4-{4-[2-(Cyclopropanecarbonyl-amino)-[1,2,4]triazolo[1,5-a]pyridin-5-yl]-benzylamino}-benzamide]
17 | > 1000 | *** (*** 51-75) | ** (** 26-50) | < 100 | > 1000 |  | O=C(Nc1nc2cccc(-c3ccc(C(=O)N4CCN(c5cccc(Cl)c5)CC4)cc3)n2n1)C1CC1 [Compound 113]
18 | > 1000 | * (* 0-25) | * (* 0-25) | < 100 | > 1000 |  | O=C(Nc1nc2cccc(-c3ccc(C(=O)N4CCCC(c5ccccc5)C4)cc3)n2n1)C1CC1 (stereo not shown) [Compound 169, N-(5-(4-(3-phenylpiperidine-1-carbonyl)phenyl)-[1,2,4]triazolo[1,5-a]pyridin-2-yl)cyclopropanecarboxamide]
19 | > 1000 | * (* 0-25) | * (* 0-25) | < 100 | > 1000 |  | O=C(Nc1ccncc1)c1ccc(-c2cccc3nc(NC(=O)C4CC4)nn23)cc1 [Compound 25, 4-(2-(cyclopropanecarboxamido)-[1,2,4]triazolo[1,5-a]pyridin-5-yl)-N-(pyridin-4-yl)benzamide]
20 | > 1000 | * (* 0-25) | *** (*** 51-75) | < 100 | > 1000 |  | CN(C)CCN(Cc1ccccc1)C(=O)c1ccc(-c2cccc3nc(NC(=O)C4CC4)nn23)cc1 [Compound 150, N-benzyl-4-(2-(cyclopropanecarboxamido)-[1,2,4]triazolo[1,5-a]pyridin-5-yl)-N-(2-(dimethylamino)ethyl)benzamide]
21 | > 1000 | **** (**** 76-100) | **** (**** 76-100) | < 100 | > 1000 |  | N#CC1(C(=O)Nc2ccc(-c3cccc4nc(NC(=O)C5CC5)nn34)cc2)CC1 [Compound 177, 1-cyano-N-(4-(2-(cyclopropanecarboxamido)-[1,2,4]triazolo[1,5-a]pyridin-5-yl)phenyl)cyclopropanecarbox-amide]
